Key:
Assay in all cases: Bliss excess, mean over the matrix (fraction); higher = more synergy
786-0 (Kidney Carcinoma) = system: 786-0 (Kidney Carcinoma)
Procedure, shortened: (§1)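 Bliss excess equals the observed combination effect minus the expected value EA + EB − EA·EB, where EA and EB are the effects of each agent alone. Combination Emax is the second-highest inhibition within the matrix. Inhibition was scaled from CellTiter-Glo 2.0 luminescence, with 0 set by vehicle wells and 1 by blank wells, after 72 hours of two-drug dosing of cells plated in 1536-well plates.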

[1] = system: AsPC-1 (Pancreatic Carcinoma)
Procedure, shortened: as §1

[2] = system: CML-T1 (Chronic Myelogenous Leukemia)
Procedure, shortened: as §1

[3] = system: Calu-6 (Non-Small Cell Lung Carcinoma)
Procedure, shortened: as §1

[4] = system: EB-3 (Burkitt's Lymphoma)
Procedure, shortened: as §1

ES-2 (Ovarian Carcinoma) = system: ES-2 (Ovarian Carcinoma)
Procedure, shortened: as §1

[5] = system: FLO-1 (Esophageal Adenocarcinoma)
Procedure, shortened: as §1

[6] = system: HSC-3 (Oral Cavity Carcinoma)
Procedure, shortened: as §1

HuO-3N1 (Osteosarcoma) = system: HuO-3N1 (Osteosarcoma)
Procedure, shortened: as §1

[7] = system: JHH-1 (Hepatocellular Carcinoma)
Procedure, shortened: as §1

[8] = system: LAMA-84 (Chronic Myelogenous Leukemia)
Procedure, shortened: as §1

[9] = system: NCI-H1155 (Non-Small Cell Lung Carcinoma)
Procedure, shortened: as §1

[10] = system: NCI-H1623 (Lung Adenocarcinoma)
Procedure, shortened: as §1

[11] = system: NKM-1 (Acute Myeloid Leukemia)
Procedure, shortened: as §1

[12] = system: OCI-AML5 (Acute Myeloid Leukemia)
Procedure, shortened: as §1

[13] = system: OV-90 (Ovarian Carcinoma)
Procedure, shortened: as §1

[14] = system: PANC-02-03 (Pancreatic Carcinoma)
Procedure, shortened: as §1

[15] = system: RPMI-8866 (Chronic Myelogenous Leukemia)
Procedure, shortened: as §1

[16] = system: SNU-175 (Colorectal Carcinoma)
Procedure, shortened: as §1

[17] = system: SW684 (Other Solid Carcinomas)
Procedure, shortened: as §1

| Compound | Bliss excess (786-0 (Kidney Carcinoma)) | Bliss excess [1] | Bliss excess [2] | Bliss excess [3] | Bliss excess [4] | Bliss excess (ES-2 (Ovarian Carcinoma)) | Bliss excess [5] | Bliss excess [6] | Bliss excess (HuO-3N1 (Osteosarcoma)) | Bliss excess [7] | Bliss excess [8] | Bliss excess [9] | Bliss excess [10] | Bliss excess [11] | Bliss excess [12] | Bliss excess [13] | Bliss excess [14] | Bliss excess [15] | Bliss excess [16] | Bliss excess [17] |
| --- | --- | --- | --- | --- | --- | --- | --- | --- | --- | --- | --- | --- | --- | --- | --- | --- | --- | --- | --- | --- |
| NC1(C(=O)N[C@@H](CCO)c2ccc(Cl)cc2)CCN(c2ncnc3[nH]ccc23)CC1 [Capivasertib] + COc1nnc2ccc(N3CCC(c4ccc(OCCN5CCN(C)C(=O)[C@H]5C)cc4)CC3)nn12 [AZD5153] (first compound max 10 µM, 7x7, partner max 1 µM) | 0.0014 | -0.0273 | -0.0125 | -0.0081 | -0.0529 | 0.0199 | 0.0115 | 0.0078 | 0.0531 | -0.0072 | -0.0038 | 0.0992 | 0.0638 | -0.0157 | 0.0552 | 0.0045 | 0.0132 | -0.0511 | -0.055 | 0.004 |
| COc1cccc(OCCCN)c1-c1cc(Nc2cnc(C#N)cn2)n[nH]1 [Prexasertib] + C[C@@H]1COCCN1C2=NC(=NC(=C2)C3(CC3)[S@](=N)(=O)C)C4=C5C=CNC5=NC=C4 [AZD6738] (first compound max 1 µM, 7x7, partner max 10 µM) | -0.0219 | 0.0292 | -0.0309 | -0.0852 | -0.0598 | -0.0375 | -0.0233 | 0.0351 | 0.0204 | 0.0009 | -0.0052 | -0.0438 | -0.0745 | -0.0583 | -0.0205 | -0.0275 | 0.0434 | 0.0633 | 0.0641 | -0.018 |
| CN(CCO)CC[C@H](CSc1ccccc1)Nc1ccc(S(=O)(=O)NC(=O)c2ccc(N3CCC([C@@H](O)c4ccccc4-c4ccc(Cl)cc4)CC3)cc2)cc1S(=O)(=O)C(F)(F)F [AZD4320] + Cn1cnc2c(F)c(Nc3ccc(Br)cc3Cl)c(C(=O)NOCCO)cc21 [Selumetinib] (first compound max 1 µM, 7x7, partner max 3 µM) | -0.0187 | 0.0314 | -0.0155 | -0.0019 | -0.036 | 0.0164 | 0.0109 | 0.0228 | -0.0194 | 0.0527 | 0.0207 | 0.0385 | 0.162 | -0.0208 | 0.0137 | 0.0304 | -0.007 | 0.0349 | 0.0316 | 0.0194 |
| CN(CCO)CC[C@H](CSc1ccccc1)Nc1ccc(S(=O)(=O)NC(=O)c2ccc(N3CCC([C@@H](O)c4ccccc4-c4ccc(Cl)cc4)CC3)cc2)cc1S(=O)(=O)C(F)(F)F [AZD4320] + C=CCn1c(=O)c2cnc(Nc3ccc(N4CCN(C)CC4)cc3)nc2n1-c1cccc(C(C)(C)O)n1 [AZD1775] (first compound max 1 µM, partner max 1 µM) | -0.0685 | 0.047 | -0.0082 | 0.0019 | -0.0269 | 0.0065 | 0.0293 | -0.0083 | -0.0135 | 0.136 | 0.083 | 0.0675 | 0.0318 | 0.035 | 0.0099 | 0.0909 | 0.0045 | 0.0402 | -0.0371 | -0.0416 |
| NC1(C(=O)N[C@@H](CCO)c2ccc(Cl)cc2)CCN(c2ncnc3[nH]ccc23)CC1 [Capivasertib] + Cn1cnc2c(F)c(Nc3ccc(Br)cc3Cl)c(C(=O)NOCCO)cc21 [Selumetinib] (first compound max 10 µM, 7x7, partner max 10 µM) | 0.0614 | -0.039 | 0.0217 | 0.0038 | -0.0424 | 0.0171 | 0.0307 | 0.0081 | -0.0321 | -0.0896 | 0.0548 | 0.0293 | 0.0623 | 0.142 | 0.0645 | -0.0313 | 0.0589 | 0.0602 | -0.0408 | 0.0495 |
| Cc1c2c(nn1C)CSCc1cc(n(C)n1)CSc1cc(c3ccccc3c1)OCCCc1c(C(=O)O)n(C)c3c-2c(Cl)ccc13 [AZD5991] + CC1(C)CCC(CN2CCN(c3ccc(C(=O)NS(=O)(=O)c4ccc(NCC5CCOCC5)c([N+](=O)[O-])c4)c(Oc4cnc5[nH]ccc5c4)c3)CC2)=C(c2ccc(Cl)cc2)C1 [Venetoclax] (first compound max 1 µM, 7x7, partner max 1 µM) | -0.034 | -0.0698 | 0.116 | -0.0014 | -0.0151 | -0.0082 | -0.0597 | 0.005 | 0.0087 | 0.128 | -0.0185 | -0.0079 | 0.0111 | 0.0517 | 0.0667 | -0.0303 | -0.0304 | -0.0138 | 0.107 | -0.0596 |
| COc1nnc2ccc(N3CCC(c4ccc(OCCN5CCN(C)C(=O)[C@H]5C)cc4)CC3)nn12 [AZD5153] + C[C@@H]1COCCN1C2=NC(=NC(=C2)C3(CC3)[S@](=N)(=O)C)C4=C5C=CNC5=NC=C4 [AZD6738] (first compound max 1 µM, 7x7, partner max 10 µM) | 0.0479 | 0.0778 | -0.0011 | -0.0567 | -0.104 | 0.0316 | 0.0257 | -0.0181 | 0.0085 | 0.0386 | 0.0202 | 0.0406 | -0.0247 | -0.0373 | 0.0158 | -0.0249 | -0.0366 | -0.0364 | 0.0289 | -0.042 |
| CN(CCO)CC[C@H](CSc1ccccc1)Nc1ccc(S(=O)(=O)NC(=O)c2ccc(N3CCC([C@@H](O)c4ccccc4-c4ccc(Cl)cc4)CC3)cc2)cc1S(=O)(=O)C(F)(F)F [AZD4320] + Cc1cc2ncnn2cc1Nc1ncc2c(n1)n(C1CCOCC1)c(=O)n2C [AZD7648] (first compound max 1 µM, 7x7, partner max 10 µM) | -0.0428 | -0.0575 | 0.0044 | -0.0522 | -0.0076 | -0.0186 | -0.0358 | -0.0051 | 0.0015 | -0.0576 | -0.0161 | 0.017 | -0.0206 | 0.0153 | 0.0193 | -0.055 | -0.0568 | 0.0654 | -0.006 | -0.0628 |
| Cc1c2c(nn1C)CSCc1cc(n(C)n1)CSc1cc(c3ccccc3c1)OCCCc1c(C(=O)O)n(C)c3c-2c(Cl)ccc13 [AZD5991] + CCN(CCO)CCCOc1ccc2c(Nc3cc(CC(=O)Nc4cccc(F)c4)[nH]n3)ncnc2c1 [AZD2811] (first compound max 1 µM, 7x7, partner max 1 µM) | -0.0142 | -0.0331 | 0.0645 | -0.0096 | -0.0197 | -0.0298 | 0.0347 | 0.0617 | 0.0023 | 0.0603 | 0.128 | 0.0911 | 0.0711 | 0.0291 | -0.0165 | 0.0136 | -0.0029 | 0.149 | -0.0794 | -0.069 |
| CC(=O)c1c(C)c2cnc(Nc3ccc(N4CCNCC4)cn3)nc2n(C2CCCC2)c1=O [Palbociclib] + Cc1c2c(nn1C)CSCc1cc(n(C)n1)CSc1cc(c3ccccc3c1)OCCCc1c(C(=O)O)n(C)c3c-2c(Cl)ccc13 [AZD5991] (first compound max 10 µM, 7x7, partner max 1 µM) | 0.0201 | -0.0859 | -0.0233 | -0.0227 | -0.0271 | -0.0182 | 0.0084 | -0.0811 | -0.0972 | -0.0111 | 0.0056 | -0.059 | -0.0321 | -0.0003 | 0.0572 | -0.0568 | -0.0522 | -0.004 | -0.0496 | -0.0906 |
| Cc1c2c(nn1C)CSCc1cc(n(C)n1)CSc1cc(c3ccccc3c1)OCCCc1c(C(=O)O)n(C)c3c-2c(Cl)ccc13 [AZD5991] + C[C@@H]1COCCN1C2=NC(=NC(=C2)C3(CC3)[S@](=N)(=O)C)C4=C5C=CNC5=NC=C4 [AZD6738] (first compound max 1 µM, 7x7, partner max 10 µM) | -0.0098 | 0.0026 | -0.012 | 0.0282 | 0.0209 | 0.0424 | -0.0301 | 0.0094 | 0.0446 | 0.106 | -0.0056 | 0.0521 | 0.0581 | 0.024 | -0.0011 | 0.0235 | 0.0205 | 0.0013 | 0.135 | 0.0472 |
| CC(=O)c1c(C)c2cnc(Nc3ccc(N4CCNCC4)cn3)nc2n(C2CCCC2)c1=O [Palbociclib] + CC1(C)CCC(CN2CCN(c3ccc(C(=O)NS(=O)(=O)c4ccc(NCC5CCOCC5)c([N+](=O)[O-])c4)c(Oc4cnc5[nH]ccc5c4)c3)CC2)=C(c2ccc(Cl)cc2)C1 [Venetoclax] (first compound max 10 µM, 7x7, partner max 1 µM) | 0.0042 | -0.0715 | -0.0899 | 0.0322 | -0.0455 | -0.0219 | -0.019 | 0.0148 | -0.0312 | -0.0601 | 0.0201 | 0.0241 | 0.011 | 0.0548 | 0.0436 | -0.0553 | -0.0319 | -0.0632 | 0.0639 | -0.0492 |
| NC1(C(=O)N[C@@H](CCO)c2ccc(Cl)cc2)CCN(c2ncnc3[nH]ccc23)CC1 [Capivasertib] + CC(=O)c1c(C)c2cnc(Nc3ccc(N4CCNCC4)cn3)nc2n(C2CCCC2)c1=O [Palbociclib] (first compound max 10 µM, 7x7, partner max 10 µM) | 0.0245 | -0.025 | 0.0054 | 0.0488 | -0.0328 | 0.0008 | -0.0218 | -0.0076 | -0.105 | -0.0687 | 0.0059 | -0.0084 | -0.0156 | -0.0204 | -0.0096 | -0.0562 | -0.0351 | 0.0215 | -0.0442 | 0.0176 |
| Cc1cc2ncnn2cc1Nc1ncc2c(n1)n(C1CCOCC1)c(=O)n2C [AZD7648] + C[C@@H]1COCCN1C2=NC(=NC(=C2)C3(CC3)[S@](=N)(=O)C)C4=C5C=CNC5=NC=C4 [AZD6738] (first compound max 10 µM, 7x7, partner max 10 µM) | 0 | 0.0133 | -0.0465 | -0.018 | -0.0278 | 0.0572 | -0.0191 | -0.0299 | 0.0042 | 0.0354 | -0.0284 | 0.0038 | 0.0359 | -0.0051 | -0.0209 | -0.0156 | 0.0561 | -0.028 | -0.0374 | -0.0272 |
